Where a name gives a salt, the structure may show the parent alone.

The subject of data set [1] is organic anion transporters (OAT). Put plainly: Inhibition study: effect of inhibitors on ES permeation across BME-UV monolayer. The data set is classed as cell-based, bovine. The note with it: inhibitor added to donor compartment.
In data set [2] the test system is organic cation transporters (OCT). Put plainly: Inhibition study: effect of inhibitors on TEA permeation across BME-UV monolayer. The data set is classed as cell-based, bovine. The note with it: inhibitor added to donor compartment.
Data set [3] concerns monolayer of BME-UV cells.
Data set [4] deals with organic cation transporters (TEA); organic anion transporters (ES). The note with it: bovine.
For data set [5], the system named is mouse mammary epithelial monolayer. The note with it: ref Toddywalla et al., 1997; cited from earlier work.
Data set [6] concerns human mammary epithelial monolayer. The note with it: ref Kimura et al., 2006; cited from earlier work.
For data set [7] the following is noted: bovine.
[8] abbreviates: either direction (data not shown).

For the compound `CCN1C(=Cc2ccc3ccccc3[n+]2CC)C=Cc2ccccc21.[I-]` [cyanine, 1,1-Diethyl-2,2-cyanine iodide], the “effect of inhibitor on permeation rate constant of ES” value in data set [1] (setting [8]) is listed as “not changed significantly”. Besides, the “decrease of permeation rate constant of TEA by inhibitor” value in data set [2] (BL-to-Ap direction only) is recorded as “approximately 49%”.

The Papp is a coefficient for how fast a substance crosses the barrier. As usually defined, the Papp A→B is how fast a substance crosses the layer from the apical side. Low readings indicate poor permeation, high ones ready permeation. One may read the Papp B→A as the apparent permeability from the basolateral to the apical side of a cell layer. `CC[N+](CC)(CC)CC` [TEA, Tetraethylammonium bromide] displayed a Papp at 4 h in “in vitro” of 161 ± 18 ×10⁻⁶ cm/s. Moreover, the “permeation rate constant for TEA relative to ES, Ap-to-BL” value in data set [3] (Ap-to-BL direction) turned out to be 3 times. In addition, the “permeation rate constant for TEA relative to ES, BL-to-Ap” value in data set [3] (BL-to-Ap direction) is reported as 2 times. Also, in data set [4], the apparent permeability from apical to basolateral (Papp A→B) at 4 h, 100 µM came out at 2 ± 0.02 ×10⁻⁶ cm/s and the apparent permeability from basolateral to apical (Papp B→A) at 4 h, 100 µM stood at 5.1 ± 0.4 ×10⁻⁶ cm/s.

For the compound `CCCN(CCC)S(=O)(=O)c1ccc(C(=O)O)cc1` [probenecid], the “decrease of permeation rate constant of ES by inhibitor” value in data set [1] (BL-to-Ap direction only) was “approximately 36%”. Moreover, the “effect of inhibitor on permeation rate constant of TEA” value in data set [2] (setting [8]) is “not changed significantly”.

In the data set “in vitro”, `C[C@]12CC[C@@H]3c4ccc(OS(=O)(=O)O)cc4CC[C@H]3[C@@H]1CCC2=O` [ES, estrone sulfate] returned an apparent permeability coefficient (Papp) at 4 h of 122 ± 34 ×10⁻⁶ cm/s. In data set [4], this compound gave a Papp A→B at 4 h, 100 µM of 0.66 ± 0.06 ×10⁻⁶ cm/s and a basolateral-to-apical permeability (Papp B→A) at 4 h, 100 µM of 2.2 ± 0.1 ×10⁻⁶ cm/s.

Take `OC[C@@H](O)[C@@H](O)[C@H](O)[C@H](O)CO` [mannitol]: the results for the Papp of mannitol in data set [5] and in data set [6] were 1.94 ×10⁻⁶ cm/s and 2.6 ×10⁻⁶ cm/s, respectively. In addition, the Papp at 4 h, 2 µM in data set [7] stood at 0.91 ± 0.4 ×10⁻⁶ cm/s.
